For one assay, the target named is T1, P-selectin (Homo sapiens, UniProt P16109).
T1 construct: purchased R&D systems (Minneapolis, MN, USA)
Description: Competition of [3H]-CE-labeled sulfatide liposome binding to P-selectin-coated wells. The following applies: for Change in Sf28 liposome binding to P-selectin: Sf28 liposomes 100 μg/mL; for Change in Sf42 liposome binding to P-selectin: Sf42 liposomes 100 μg/mL; for Change in Sf57 liposome binding to P-selectin: Sf57 liposomes 100 μg/mL; for EC50: Sf28 liposomes (28% sulfatide). As to the method: Liposomes were prepared by sonication as follows. Egg yolk phosphatidylcholine, cholesterol, and sulfatides, all dissolved in chloroform/methanol (1:1, v/v), were mixed at weight ratios of 4:0.8:0 (named Sf0), 4:0.8:1.3 (Sf21), 2.5:0.8:1.3 (Sf28), 1:0.8:1.3 (Sf42), and 0.2:0.8:1.3 mg/mL (Sf57). The Sf numbers indicate the number of sulfatides as a percentage of total lipid weight. A tracer amount of [^3H]-cholesteryl oleate ([^3H]-CE; 1.3 × 10^8 dpm (disintegrations per minute)) was added, and the organic solvent was evaporated by a stream of nitrogen. The resulting lipid layer was vortexed in 1 mL phosphate buffered saline (PBS) and subsequently sonicated for 40 min at 54 °C using a Soniprep 150 (MSE Scientific Instruments, Crawley, UK) at 18 µm amplitude. Particle sizes were determined by photon correlation spectroscopy (Malvern 4700 C System, Malvern Instruments, Malvern, UK) at 25 °C and a 90° angle between laser and detector. […] Liposomes were stored at 4 °C under argon and used for characterization and metabolic studies within 7 days following preparation, during which no physicochemical changes occurred. As the liposomes were equal in size and incorporation of the radioactive label was quantitative, the specific activity of each sulfatide-bearing liposome was calculated as the amount of [^3H]-cholesteryloleate (dpm) divided by the total lipid content (ng).
Fc-specific goat anti-human IgG (10 μg/mL) was coated overnight at 4 °C in a high binding 96-well plate (Costar, Corning, UK) in coating buffer (50 mM NaHCO3, pH 9.6). Then, wells were washed with assay buffer (20 mmol/L HEPES, 150 mmol/L NaCl, 1 mmol/L CaCl2, pH 7.4) and incubated for 1 h at 37 °C with blocking buffer (3% bovine serum albumin (BSA) in assay buffer). After washing, wells were incubated with fusion proteins of IgG and P-, E-, or L-selectin (0.3 μg/mL, 2 h, 37 °C), washed with assay buffer, and subsequently incubated for 2 h at 4 °C with a concentration range of [^3H]-CE-labeled liposomes (0–800 µg lipid per mL assay buffer containing 0.2% BSA). For competition studies, labeled liposomes (1 × 10^5 dpm/well) were incubated in the presence of peptides or antibodies at the indicated concentrations. After removal of unbound liposomes by washing four times with assay buffer, bound liposomes were collected in 2-propanol/butanol/water (50:25:20, by vol.) and counted for radioactivity using a scintillation counter. Since the sulfatide liposomes were equal in size, the recovered amount of [^3H]-CE could be used to calculate the binding capacity of P-selectin for the sulfatide liposomes, as well as the recovered amount of lipid (ng/well) based on the specific activity.

The target of assay [1] is P-selectin binding to HL60 cells (PSGL-1) (Homo sapiens, UniProt P16109). The following applies: displacement of P-selectin binding to HL60 cells; ref Molenaar et al. [28]; cited from earlier work.
Sequence of P-selectin binding to HL60 cells (PSGL-1) (P16109 42-830 limits assumed): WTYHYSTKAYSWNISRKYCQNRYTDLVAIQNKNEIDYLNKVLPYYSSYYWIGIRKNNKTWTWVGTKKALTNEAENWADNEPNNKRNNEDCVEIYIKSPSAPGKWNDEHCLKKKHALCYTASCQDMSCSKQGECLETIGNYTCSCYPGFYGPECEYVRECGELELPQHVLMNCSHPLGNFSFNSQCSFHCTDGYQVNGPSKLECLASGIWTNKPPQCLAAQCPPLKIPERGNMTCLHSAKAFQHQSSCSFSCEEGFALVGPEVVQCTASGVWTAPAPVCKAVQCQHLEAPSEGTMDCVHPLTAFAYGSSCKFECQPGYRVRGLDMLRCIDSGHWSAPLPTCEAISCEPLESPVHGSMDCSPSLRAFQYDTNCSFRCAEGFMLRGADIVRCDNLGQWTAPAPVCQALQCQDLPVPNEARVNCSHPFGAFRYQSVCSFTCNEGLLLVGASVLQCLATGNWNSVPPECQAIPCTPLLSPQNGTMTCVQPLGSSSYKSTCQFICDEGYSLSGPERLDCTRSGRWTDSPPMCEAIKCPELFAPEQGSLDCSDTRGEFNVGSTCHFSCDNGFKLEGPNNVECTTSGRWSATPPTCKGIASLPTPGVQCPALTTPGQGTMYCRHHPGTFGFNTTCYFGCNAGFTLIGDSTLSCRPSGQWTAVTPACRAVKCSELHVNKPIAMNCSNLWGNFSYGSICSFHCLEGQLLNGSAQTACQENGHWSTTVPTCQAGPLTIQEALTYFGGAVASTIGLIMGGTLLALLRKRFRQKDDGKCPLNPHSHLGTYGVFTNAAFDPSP
Assay [2] has as its system human platelets. Description: Aggregate size after ADP-induced aggregation of human PRP (light microscopy). The assay is classed as cell-based. Particulars: 100 μM. How it is done: (§1) Human PRP was incubated with peptide antagonists (100 μmol/L, 5 min, 37 °C) or vehicle and stimulated with 10 μmol/L ADP under constant stirring at 1000 rpm (37 °C). Optical aggregation was monitored in a Chrono-Log Lumi-aggregometer (Chrono-Log Corporation, Havertown, PA, USA).
After 15 min, aggregates were fixed in 1 volume 0.5% glutaraldehyde in PBS and applied to microscope slides. Aggregates were dehydrated with methanol and stained with May-Grünwald/Giemsa. The aggregate size was measured by light microscopy equipped with a JAI-CCD camera (Copenhagen, Denmark) coupled to a Matrox frame grabber (Matrox Electronic Systems Ltd., Dorval, Quebec, Canada) using the ‘watershed’ function of the Optimas 6.2 software (Optimas Inc., Seattle, WA, USA). Results were expressed as mean aggregate size (μm^2).

For assay [3], the system named is human platelets. Description: ADP-induced platelet aggregation in human platelet-rich plasma (optical aggregometry). The assay is classed as cell-based. Particulars: 10 μM ADP.
Source text: Freshly drawn venous blood from healthy volunteers was obtained through the Mini Donor Service, a blood donation facility for research purposes, that is approved by the Medical Ethics Committee of the University Medical Center Utrecht (protocol number 07-125). All donors provided written informed consent, in accordance with the Declaration of Helsinki for blood collection through this service. All participant information is kept confidential, and only Mini Donor Service personnel have access to the information provided. The donors were free of medication for at least two weeks before blood collection. Overnight fasting before blood collection was not necessary. Blood was collected into 0.1 volume 130 mmol/L trisodium citrate and was processed the same day and within 6 h. For aggregation studies, platelet-rich plasma (PRP) was prepared by centrifugation (150 g, 15 min, 20 °C) and adjusted to a final concentration of 2×10^11 platelets/L with platelet-poor plasma prepared from the remaining blood (1100 g, 10 min, 20 °C). […]
as §1

Assay [4] addresses human P-selectin-IgG (human) (UniProt P16109).
A further assay concerns the target T2, human P-selectin-IgG (human, UniProt P16109 42-771).
T2 construct: P-selectin, human, fused to IgG (Fc); Captured in the wells through Fc-specific goat anti-human IgG; also called human Fc fusion protein of P-selectin; fusion protein of IgG and P-selectin; source: bought: R&D systems
T2 sequence (looked up): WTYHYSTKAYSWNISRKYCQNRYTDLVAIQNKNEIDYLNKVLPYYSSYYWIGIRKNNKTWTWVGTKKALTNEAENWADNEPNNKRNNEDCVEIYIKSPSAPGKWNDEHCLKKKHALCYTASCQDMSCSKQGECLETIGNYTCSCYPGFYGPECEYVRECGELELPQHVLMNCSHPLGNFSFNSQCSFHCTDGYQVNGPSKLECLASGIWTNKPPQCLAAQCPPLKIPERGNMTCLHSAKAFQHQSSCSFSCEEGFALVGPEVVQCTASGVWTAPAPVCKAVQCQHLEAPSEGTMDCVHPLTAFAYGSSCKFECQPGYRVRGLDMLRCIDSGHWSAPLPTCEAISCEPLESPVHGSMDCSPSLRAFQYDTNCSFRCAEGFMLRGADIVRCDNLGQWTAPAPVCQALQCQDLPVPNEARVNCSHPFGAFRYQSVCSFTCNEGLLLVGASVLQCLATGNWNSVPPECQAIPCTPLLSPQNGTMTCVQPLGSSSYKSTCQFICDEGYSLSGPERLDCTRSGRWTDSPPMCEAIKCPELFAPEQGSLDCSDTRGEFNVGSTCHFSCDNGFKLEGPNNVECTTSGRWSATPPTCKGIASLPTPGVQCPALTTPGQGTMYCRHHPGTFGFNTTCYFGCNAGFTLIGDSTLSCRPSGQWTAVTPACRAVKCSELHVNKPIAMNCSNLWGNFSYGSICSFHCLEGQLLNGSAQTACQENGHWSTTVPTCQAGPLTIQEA
Description: radioligand binding; displacement: P-selectin-IgG (0.3 ug/mL) captured on Fc-specific goat anti-human IgG in 96-well plates; [3H]-cholesteryl oleate-labelled Sf28 sulfatide liposomes (1 x 10^5 dpm/well) with increasing amounts of peptide; 2 h, 4 C; 20 mmol/L HEPES, 150 mmol/L NaCl, 1 mmol/L CaCl2, pH 7.4, 0.2% BSA. The following applies: both partners purified.

Positions of bridges follow the written chain, without caps; N, C: chain ends. Residues, ends and D or L forms follow the SMILES beside them. No end group written: not given here. Where only a bound is given, the exact number is not on record here.

In the case of “rPSGL-1-Ig: recombinant PSGL-1 immunoglobulin fusion, P-selectin inhibitor”, in the assay with P-selectin (15 µg/mL), the “Change in Sf28 liposome binding to P-selectin” value is −88%, the “Change in Sf42 liposome binding to P-selectin” value was −97% and the “Change in Sf57 liposome binding to P-selectin” value was −68%.
Broadly, the EC50 is the concentration that produces a half-maximal response. Take DVEWADVS [DVEWADVS]: the EC50 (on P-selectin; in assay [1]) was more than 1000 µM in each case.
With DVEWVDAS [DVEWVDAS], the EC50 (on P-selectin; in assay [1]) was more than 1000 µM throughout.
On to DVEWVDVS [DVEWVDVS], for which the EC50 is 12 µM at P-selectin and 11 µM in assay [1].
Consider AVEWVDVS [AVEWVDVS], for which the EC50 at P-selectin is more than 1000 µM; in assay [1], 12 µM.
For the molecule `O=C(O)CN(CCN(CC(=O)O)CC(=O)O)CC(=O)O` [EDTA, reference compound], at P-selectin (10 mM), the “Change in Sf28 liposome binding to P-selectin” value is −79%, the “Change in Sf42 liposome binding to P-selectin” value is listed as “did not affect” and the “Change in Sf57 liposome binding to P-selectin” value is listed as “did not affect”.
DAEWVDVS [DAEWVDVS]: the figures for the EC50 (on P-selectin; in assay [1]) were more than 1000 µM and 19 µM, respectively.
With DVEWVDVA [DVEWVDVA], in assay [1], the EC50 was 7 µM.
For orientation: IC50 means the point on the concentration scale where inhibition reaches its midpoint. A high value points to lower potency. As for EWVDV [EWVDV], the results for the EC50 (at P-selectin; in assay [1]) were more than 1000 µM and 12 µM, respectively. For the same molecule, the IC50 at P-selectin (abstract) was more than 1000 µM.
For the molecule EWVKV [EWVKV], the EC50 (on P-selectin; in assay [1]) was more than 1000 µM each time.
For the molecule DVAWVDVS [DVAWVDVS], the EC50 at P-selectin was more than 1000 µM; in assay [1], 41 µM.
Regarding DVEAVDVS [DVEAVDVS], the EC50 (at P-selectin; in assay [1]) was more than 1000 µM each time.
Regarding DVEWVAVS [DVEWVAVS], the EC50 (on P-selectin; in assay [1]) was more than 1000 µM each time.
With VEWVDV [VEWVDV], the EC50 was more than 1000 µM on P-selectin and 13 µM in assay [1].
As for `CC(C)[C@@H]1NC(=O)[C@H](CC(=O)O)NC(=O)[C@H](C(C)C)NC(=O)[C@H](Cc2c[nH]c3ccccc23)NC(=O)[C@H](CCC(=O)O)NC(=O)[C@H](C(C)C)NC(=O)[C@H](CC(=O)O)NC(=O)[C@@H](N)CSSC[C@@H](C(=O)O)NC(=O)[C@H](CO)NC1=O` [CDVEWVDVSC] (H-CDVEWVDVSC-OH; disulfide 1-10 (inferred); N-terminus and C-terminus assumed), the “Reduction of mean aggregate size” value in the assay on human platelets [2] (ADP-induced aggregation of human PRP) is listed as “about 90%”. In addition, the “Aggregates smaller than 1000 μm^2” value in the assay on human platelets [2] (15% in the absence of inhibitors) worked out at 76%. In addition, at P-selectin (0.5 µM), the “Change in Sf42 liposome binding to P-selectin” value is recorded as “did not affect” and the “Change in Sf57 liposome binding to P-selectin” value is “did not affect”. The “Initial slope of platelet aggregation” value in the assay on human platelets [3] (100 μM peptide) is “remained unaltered”. The “Aggregation: percentage inhibition of platelet aggregation” value in the assay on human platelets [3] (100 µM peptide, human PRP, maximum aggregation) is 43% (p<0.001).

B1: EWVDV (peptide)
peptide: EWVDV
In assay [4], B1 had a Percentage inhibition of ADP-induced aggregation of human platelet-rich plasma at 100 uM peptide (sulfatide/P-selectin-dependent aggregation) of 12%.

B2: EWVKV (peptide)
peptide: EWVKV
Turning to B2, the Percentage inhibition of ADP-induced aggregation of human platelet-rich plasma at 100 uM peptide (sulfatide/P-selectin-dependent aggregation) in assay [4] came out at 0%.

B3: CDVEWVDVSC (peptide)
peptide: CDVEWVDVSC
notes: also called peptide antagonist; elongated EWVDV peptide
As to B3, the EC50 in the assay with human P-selectin-IgG came out at 0.2 µM.

B4: DVEWVDVA (peptide)
peptide: DVEWVDVA
notes: also called elongated EWVDV peptide
On to B4, for which the EC50 with human P-selectin-IgG was found to be 8 µM.
